From patent EP0443560A2, “HIV protease inhibitors” (priority 1990, dated 1991)

target: T1, HIV protease (Human immunodeficiency virus type 1 group M subtype B, UniProt P04585); assay: Recombinant HIV Protease HPLC Assay; format: biochemical; conditions: not given
T1 construct: HIV protease was expressed in E. coli [construct pBRT1 prt⁺; made in house; host or cells: E. coli
Excerpt: The procedure is based on the capacity of the test compound to inhibit enzymatic cleavage by HIV protease of a decapeptide (the substrate) having an amino acid sequence which includes a known HIV protease cleavage site of a HIV polyprotein; see H.G. Krausslich et al., Proc. Natl. Acad. Sci. USA, 86, 807 (1989). Details of this assay together with the results obtained for exemplified compounds of formula 1 are described in the examples hereinafter.
Recombinant HIV Protease HPLC Assay:
HIV protease was expressed in E. coli [construct pBRT1 prt⁺, see W.G. Farmerie et al., Science, 236, 305 (1987)], according to the following protocol: Unless stated otherwise, all solutions are aqueous solutions.
E. coli cells containing the pBRT1 prt⁺ plasmid were used to inoculate a seed culture media composed of Luria-Bertani Broth containing 100µg/mL of ampicillin. Flasks were incubated at 37° under agitation for 17 h. Production flasks containing sterile M9 broth, supplemented with 100µg/ml of ampicillin, were inoculated at a level of 1% (v/v) using the seed culture described above. Total volume in each production flask was 500 mL in a 2 L Erlenmeyer flask. Flasks were incubated at 37° under agitation until a cell concentration corresponding to an optical density (λ = […]) of 0.6 was reached (no dilution). This time span was routinely 3-4 h. Flasks were then supplemented with 5mM isopropylthiogalactoside (IPTG, Research Organics, Cleveland, Ohio, USA) and incubation was continued until the cell concentration reached an optical density of 0.2 at 16-fold dilution. Flasks were then supplemented with 1mM phenylmethylsulfonyl fluoride (PMSF) and rapidly chilled to 4°. The bacterial cells were recovered by centrifugation at 4°. The wet pellet was stored at -70°.
All steps below were performed at 4° unless otherwise indicated. Thawed cells were mixed with buffer A [50 mM tris(hydroxymethyl)[…] HCl(Tris-HCl, pH 7.4); 0.6 mM ethylenediaminetetraacetic acid (EDTA); 0.375 M NaCl, 0.2% Nonidet P-40 ® (BDH Chemicals Ltd., Poole, UK); 1mM PMSF], at a ratio of one part cells to nine parts buffer A. Diatomaceous earth (Celite 545 ® , John Manville, Lompoc, CA, USA) was added at a ratio of two parts to one part of wet cell weight. The resulting slurry was homogenized at high speed (ca. 20,000 rpm) on a Waring ® industrial blender for 8 x 15 sec. pulses. Cell debris/Celite ® was collected by centrifugation and the resulting pellet was extracted with 4.5 parts of buffer A to one part wet solids using the homogenization procedure described above. Supernatants from both homogenization steps were combined and soluble protein was precipitated by the addition of solid (NH₄)₂SO₄ to yield a final concentration of 75% saturation. This mixture was agitated for 60 min and the precipitate was recovered by centrifugation. The resulting pellet was suspended in buffer B [50mM Tris-HCl, pH 8; 30 mM NaCl; 1 mM DL-dithiothreitol(DTT); 1 mM EDTA; 1 mM PMSF; 10% glycerol], and dialyzed for 18h against the same buffer.
An aliquot of the dialyzed extract containing 150 mg of the protein was loaded onto a Sephadex A25 ® anion exchange column. (Pharmacia, Uppsala, Sweden) with bed dimensions of 70 cm length and 2.5 cm diameter. The sample was eluted isocratically with buffer B at a linear flow rate of 10 cm/h. Fractions containing HIV protease activity (see below for assay description) were combined, and soluble protein was precipitated by the addition of saturated aqueous (NH₄)₂SO₄ to yield a total (NH₄)₂SO₄ concentration of 85% saturation. Precipitated protein was removed by centrifugation and the resulting pellet was dissolved in buffer C [50 mM 2-(4-morpholino)ethanesulfonic acid (MES), pH 5.5; 150 mM NaCl; 1 mM DTT; 1 mM EDTA; 10% glycerol). This preparation was dialyzed for 18h against buffer C, and then frozen at -70°. All crude extracts were purified by chromatography in aliquots containing 150 mg of protein in the same manner as described above. […]

Q: CC(C)C[C@H](NC[C@H](Cc1ccccc1)NC(=O)OC(C)(C)C)C(=O)N[C@@H](CCC(=O)O)C(=O)NCCCc1ccccc1 [Example 1, Boc-PheΨ[CH₂NH]Leu-Glu-NHCH₂CH₂CH₂Ph] was tested. Which IC50 did it give?
A: 36 nM

Q: How did the IC50 turn out when COC(=O)CCC(NC(=O)CC(O)C(CC1CCCCC1)NC(=O)OC(C)(C)C)C(=O)NCCCc1ccccc1 (stereo not drawn) [Example 5, Boc-ACHPA-Glu(OMe)-NHCH₂CH₂CH₂Ph] was run?
A: 110 nM

Q: For CCC(CC)C(=O)NC(CC1CCCCC1)C(O)CC(=O)NC(CCC(=O)O)C(=O)NCCc1ccccc1 (stereo not drawn) [Example 6, (C₂H₅)₂CHC(O)-ACHPA-Glu-NHCH₂CH₂Ph], which IC50 is on record?
A: 93 nM

Q: With O=C(O)CCC(NC(=O)CC(O)C(CC1CCCCC1)NC(=O)C1CCCCC1)C(=O)NCCc1ccccc1 (stereo not drawn) [Example 12, (Cyclohexylcarbonyl)-ACHPA-Glu-NHCH₂CH₂Ph] as the compound, how does the IC50 read?
A: 130 nM

Q: Which IC50 does the source give for CCCCCCCCNC(=O)C(CCC(=O)O)NC(=O)CC(O)C(CC1CCCCC1)NC(=O)OC(C)(C)C (stereo not drawn) [Example 13, Boc-ACHPA-Glu-NH(CH₂)₇CH₃] here?
A: 40 nM

Q: Which IC50 does the source give for CC(C)(C)OC(=O)NC(CC1CC1)C(O)CC(=O)NC(CCC(=O)O)C(=O)NCCCc1ccccc1 (stereo not drawn) [Example 18, Boc-ACPPA-Glu-NHCH₂CH₂CH₂Ph] here?
A: 180 nM

Q: How did the IC50 turn out when CSc1ccc(CCNC(=O)C(CCC(=O)O)NC(=O)CC(O)C(CC2CCCCC2)NC(=O)OC(C)(C)C)cc1 (stereo not drawn) [Example 22, Boc-ACHPA-Glu-NHCH₂CH₂-(4MeS-Ph)] was run?
A: 18 nM

Q: With CC(C)(C)OC(=O)NC(CC1CCCCC1)C(O)CC(=O)NC(CCC(=O)O)C(=O)OCCCc1ccccc1 (stereo not drawn) [Example 25, Boc-ACHPA-Glu-OCH₂CH₂CH₂Ph] as the compound, how does the IC50 read?
A: 85 nM

Q: CC(C)(C)NC(=O)NC(CC1CCCCC1)C(O)CC(=O)NC(CCC(=O)O)C(=O)NCCCc1ccccc1 (stereo not drawn) [Example 26, (CH₃)₃CNHCO-ACHPA-Glu-NHCH₂CH₂CH₂Ph] was tested. Which IC50 did it give?
A: 120 nM

Q: Which IC50 does the source give for CC(C)(C)OC(=O)NC(CC1CCCCC1)C(O)CC(=O)NC(CCC(=O)O)C(=S)NCCCc1ccccc1 (stereo not drawn) [Example 31, Boc-ACHPA-GluΨ[CSNH]-NHCH₂CH₂CH₂Ph] here?
A: 380 nM

Q: CC(C)(C)OC(=O)NC(C(O)CC(=O)NC(CCC(=O)O)C(=O)NCCCc1ccccc1)C(O)C1CCCCC1 (stereo not drawn) [Example 33, Boc-HACHPA-Glu-NHCH₂CH₂CH₂Ph] was tested. Which IC50 did it give?
A: 7.7 nM

same assay, conditions: read-out: IC₅₀; recombinant HIV protease HPLC assay; values in parenthesis in text

Q: With COC(=O)CC[C@H](NC(=O)C[C@H](O)[C@H](CC1CCCCC1)NC(=O)OC(C)(C)C)C(=O)NCCCc1ccc(F)cc1 [Boc-ACHPA-Glu(OMe)-NHCH₂CH₂CH₂-(4F-Ph)] as the compound, how does the IC50 read?
A: 83 nM

Q: For COC(=O)CC[C@H](NC(=O)C[C@H](O)[C@H](CC1CCCCC1)NC(=O)OC(C)(C)C)C(=O)NCCOc1ccccc1Cl [Boc-ACHPA-Glu(OMe)-NHCH₂CH₂O-(2Cl-Ph)], which IC50 is on record?
A: 140 nM

Q: With CC(C)(C)OC(=O)N[C@@H](CC1CCCCC1)[C@@H](O)CC(=O)N[C@@H](CCC(=O)O)C(=O)NCCc1ccc(Cl)cc1 [Boc-ACHPA-Glu-NHCH₂CH₂-(4-Cl-Ph)] as the compound, how does the IC50 read?
A: 12 nM

Q: Which IC50 does the source give for CC(C)(C)OC(=O)N[C@@H](CC1CCCCC1)[C@@H](O)CC(=O)N[C@@H](CCC(=O)O)C(=O)NCCCc1ccc(F)cc1 [Boc-ACHPA-Glu-NHCH₂CH₂CH₂-(4F-Ph)] here?
A: 5.6 nM

Q: How did the IC50 turn out when CC(C)(C)OC(=O)N[C@@H](CC1CCCCC1)[C@@H](O)CC(=O)N[C@@H](CCC(=O)O)C(=O)NCCOc1ccccc1Cl [Boc-ACHPA-Glu-NHCH₂CH₂O-(2Cl-Ph)] was run?
A: 6.6 nM

same assay, conditions: recombinant HIV protease HPLC assay; values in parenthesis in text; read-out: IC₅₀

Q: How did the IC50 turn out when COC(=O)CCC(NC(=O)CC(O)C(CC1CCCCC1)NC(=O)OC(C)(C)C)C(=O)NCCc1ccc(SC)cc1 (stereo not drawn) [Boc-ACHPA-Glu(OMe)-NHCH₂CH₂-(4MeS-Ph)] was run?
A: 91 nM

Q: Which IC50 does the source give for COC(=O)CC[C@H](NC(=O)C[C@H](O)[C@H](CC1CCCCC1)NC(=O)OC(C)(C)C)C(=O)NCCOCc1ccccc1 [Boc-ACHPA-Glu(OMe)-NHCH₂CH₂OBzl] here?
A: 260 nM

Q: For COc1ccc(CCNC(=O)[C@H](CCC(=O)O)NC(=O)C[C@H](O)[C@H](CC2CCCCC2)NC(=O)OC(C)(C)C)cc1 [Boc-ACHPA-Glu-NHCH₂CH₂-(4-MeO-Ph)], which IC50 is on record?
A: 33 nM

Q: CC(C)(C)OC(=O)N[C@@H](CC1CCCCC1)[C@@H](O)CC(=O)N[C@@H](CCC(=O)O)C(=O)NCCCc1ccco1 [Boc-ACHPA-Glu-NHCH₂CH₂CH₂-(2-furyl)] was tested. Which IC50 did it give?
A: 25 nM

Q: CC(C)(C)OC(=O)N[C@@H](CC1CCCCC1)[C@@H](O)CC(=O)N[C@@H](CCC(=O)O)C(=O)NCCCc1cccs1 [Boc-ACHPA-Glu-NHCH₂CH₂CH₂-(2-thienyl)] was tested. Which IC50 did it give?
A: 33 nM

Q: For CC(C)(C)OC(=O)NC(CC1CCCCC1)C(O)CC(=O)NC(CCC(=O)O)C(=O)NCCOCc1ccccc1 (stereo not drawn) [Boc-ACHPA-Glu-NHCH₂CH₂OBzl], which IC50 is on record?
A: 7.1 nM

Q: For CC(C)(C)OC(=O)N[C@@H](CC1CCCCC1)[C@@H](O)CC(=O)N[C@@H](CCC(=O)O)C(=O)NCCOc1ccccc1 [Boc-ACHPA-Glu-NHCH₂CH₂OPh], which IC50 is on record?
A: 8.6 nM

Q: For CC(C[C@H](NC(=O)C[C@H](O)[C@H](CC1CCCCC1)NC(=O)OC(C)(C)C)C(=O)NCCCc1ccccc1)C(=O)O (stereo partly drawn) [Boc-ACHPA-{(S)-NHCH[CH₂CH(CH₃)COOH]}C(O)-NHCH₂CH₂CH₂Ph], which IC50 is on record?
A: 18 nM

Q: For COC(=O)CC[C@H](NC(=O)CC[C@H](O)[C@H](CC1CCCCC1)NC(=O)OC(C)(C)C)C(=O)NCCCc1ccccc1 [Boc-ChaΨ[CH(OH)CH₂]Gly-Glu(OMe)-NHCH₂CH₂CH₂Ph], which IC50 is on record?
A: 600 nM

Q: With CC(C)(C)OC(=O)N[C@@H](CC1CCCCC1)[C@@H](O)CCC(=O)N[C@@H](CCC(=O)O)C(=O)NCCCc1ccccc1 [Boc-ChaΨ[CH(OH)CH₂]Gly-Glu-NHCH₂CH₂CH₂Ph] as the compound, how does the IC50 read?
A: 14 nM

Q: How did the IC50 turn out when COC(=O)CC[C@H](NC(=O)C[C@H](O)[C@@H](NC(=O)OC(C)(C)C)[C@@H](O)C1CCCCC1)C(=O)NCCCc1ccccc1 [Boc-HACHPA-Glu(OMe)-NHCH₂CH₂CH₂Ph] was run?
A: 120 nM

Q: Which IC50 does the source give for CC(C)(C)OC(=O)N[C@H](CN[C@@H](CC1CC1)C(=O)N[C@@H](CCC(=O)O)C(=O)NCCc1ccccc1)Cc1ccccc1 [Boc-PheΨ[CH₂NH]Cpa-Glu-NHCH₂CH₂Ph] here?
A: 16 nM

Q: CCCC[C@H](NC[C@H](Cc1ccccc1)NC(=O)OC(C)(C)C)C(=O)N[C@@H](CCC(=O)O)C(=O)NCCCc1ccccc1 [Boc-PheΨ[CH₂NH]Nle-Glu-NHCH₂CH₂CH₂Ph] was tested. Which IC50 did it give?
A: 12 nM

Q: For CC(C)[C@H](NC[C@H](Cc1ccccc1)NC(=O)OC(C)(C)C)C(=O)N[C@@H](CCC(=O)O)C(=O)NCCCc1ccccc1 [Boc-PheΨ[CH₂NH]Val-Glu-NHCH₂CH₂₂CH₂Ph], which IC50 is on record?
A: 30 nM

Q: Which IC50 does the source give for CC(=O)N[C@@H](CC1CCCCC1)[C@@H](O)CC(=O)N[C@@H](CCC(=O)O)C(=O)NCCCc1ccccc1 [CH₃C(O)-ACHPA-Glu-NHCH₂CH₂CH₂Ph] here?
A: 160 nM

Q: Which IC50 does the source give for COC(=O)CC[C@H](NC(=O)C[C@H](O)[C@H](CC1CCCCC1)NC(=O)OC(C)C)C(=O)NCCOCc1ccccc1 [Ipoc-ACHPA-Glu(OMe)-NHCH₂CH₂OBzl] here?
A: 150 nM

Q: How did the IC50 turn out when CC(C)OC(=O)N[C@@H](CC1CCCCC1)[C@@H](O)CC(=O)N[C@@H](CCC(=O)O)C(=O)NCCCc1ccccc1 [Ipoc-ACHPA-Glu-NH-CH₂CH₂CH₂Ph] was run?
A: 6.3 nM

Q: With COC(=O)N[C@@H](CC1CCCCC1)[C@@H](O)CC(=O)N[C@@H](CCC(=O)O)C(=O)NCCCc1ccccc1 [Moc-ACHPA-Glu-NHCH₂CH₂CH₂Ph] as the compound, how does the IC50 read?
A: 15 nM

Q: “Boc(4F-Phe)Ψ[CH₂NH]Cpa-Glu-NHCH₂CH₂-(4F-Ph)” was tested. Which IC50 did it give?
A: 15 nM

Q: With Boc-AHDHA-Glu-NHCH₂CH₂CH₂Ph as the compound, how does the IC50 read?
A: 32 nM

Q: Boc-PheΨ[CH₂NH]Cpa-Glu-NHCH₂CH₂-(4F-Ph) was tested. Which IC50 did it give?
A: 8.4 nM

Q: “Boc-PheΨ[CH₂NH]Cpa-Glu-NHCH₂CH₂CH₂-(4F-Ph)” was tested. Which IC50 did it give?
A: 8 nM

Q: For Boc-homoACHPA-Glu-NHCH₂CH₂CH₂Ph, which IC50 is on record?
A: 68 nM
